# Data reported in patent publication US20240238242A1, “EGCG buccal tablet and use thereof” (priority 2023, published 2024).
# Several values for one entry are separate records, joined by “and”; a condition that tells them apart may be missing. Equal entries are not always repeated.
# Test system: Coronavirus (hCoV-229E)
# Assay: Inactivation efficiency against coronavirus hCoV-229E strain (residual TCID50 on Huh-7 cells)
# Format: cell-based
# Details: for CPE test (virus replication in cell wells): wells 1-10; for average inactivation efficiency against virus / inactivation efficiency against the virus: hCoV-229E virus; for average inactivation efficiency against virus: three experiments; for inactivation efficiency against the virus: single experiment
structure (smiles),measurement,setting,value
"O=C(O[C@@H]1Cc2c(O)cc(O)cc2O[C@@H]1c1cc(O)c(O)c(O)c1)c1cc(O)c(O)c(O)c1 [EGCG, Epigallocatechin gallate]",CPE test (virus replication in the cell wells),"1 mM EGCG + virus, co-incubated 5 minute, second experiment, dilution factor 10^8, wells 1-10",−
same,CPE test (virus replication in the cell wells),"1 mM EGCG + virus, co-incubated 5 minutes, dilution factor 10^1, wells 1-10, third experiment",+
same,CPE test (virus replication in the cell wells),"1 mM EGCG + virus, co-incubated 5 minutes, dilution factor 10^2, wells 1-10, third experiment",+
same,CPE test (virus replication in the cell wells),"1 mM EGCG + virus, co-incubated 5 minutes, dilution factor 10^3, wells 1-10, third experiment",+
same,CPE test (virus replication in the cell wells),"1 mM EGCG + virus, co-incubated 5 minutes, dilution factor 10^4, wells 1-10, third experiment",+
same,CPE test (virus replication in the cell wells),"1 mM EGCG + virus, co-incubated 5 minutes, dilution factor 10^5, wells 1-10, third experiment",+ and −
same,CPE test (virus replication in the cell wells),"1 mM EGCG + virus, co-incubated 5 minutes, dilution factor 10^6, wells 1-10, third experiment",− and +
same,CPE test (virus replication in the cell wells),"1 mM EGCG + virus, co-incubated 5 minutes, dilution factor 10^7, wells 1-10, third experiment",−
same,CPE test (virus replication in the cell wells),"1 mM EGCG + virus, co-incubated 5 minutes, dilution factor 10^8, wells 1-10, third experiment",−
same,CPE test (virus replication in cell wells),"1 mM EGCG + virus, hCoV-229E co-incubated 1 minute, second experiment, dilution factor 10^1",+
same,CPE test (virus replication in cell wells),"1 mM EGCG + virus, hCoV-229E co-incubated 1 minute, second experiment, dilution factor 10^2",+
same,CPE test (virus replication in cell wells),"1 mM EGCG + virus, hCoV-229E co-incubated 1 minute, second experiment, dilution factor 10^3",+
same,CPE test (virus replication in cell wells),"1 mM EGCG + virus, hCoV-229E co-incubated 1 minute, second experiment, dilution factor 10^4",+ and −
same,CPE test (virus replication in cell wells),"1 mM EGCG + virus, hCoV-229E co-incubated 1 minute, second experiment, dilution factor 10^5",− and +
same,CPE test (virus replication in cell wells),"1 mM EGCG + virus, hCoV-229E co-incubated 1 minute, second experiment, dilution factor 10^6",−
same,CPE test (virus replication in cell wells),"1 mM EGCG + virus, hCoV-229E co-incubated 1 minute, second experiment, dilution factor 10^7",−
same,CPE test (virus replication in cell wells),"1 mM EGCG + virus, hCoV-229E co-incubated 1 minute, second experiment, dilution factor 10^8",−
same,CPE test (virus replication in cell wells),"1 mM EGCG + virus, hCoV-229E co-incubated 1 minute, third experiment, dilution factor 10^1",+
same,CPE test (virus replication in cell wells),"1 mM EGCG + virus, hCoV-229E co-incubated 1 minute, third experiment, dilution factor 10^2",+
same,CPE test (virus replication in cell wells),"1 mM EGCG + virus, hCoV-229E co-incubated 1 minute, third experiment, dilution factor 10^3",+
same,CPE test (virus replication in cell wells),"1 mM EGCG + virus, hCoV-229E co-incubated 1 minute, third experiment, dilution factor 10^4",+
same,CPE test (virus replication in cell wells),"1 mM EGCG + virus, hCoV-229E co-incubated 1 minute, third experiment, dilution factor 10^5",+ and −
same,CPE test (virus replication in cell wells),"1 mM EGCG + virus, hCoV-229E co-incubated 1 minute, third experiment, dilution factor 10^6",− and +
same,CPE test (virus replication in cell wells),"1 mM EGCG + virus, hCoV-229E co-incubated 1 minute, third experiment, dilution factor 10^7",−
same,CPE test (virus replication in cell wells),"1 mM EGCG + virus, hCoV-229E co-incubated 1 minute, third experiment, dilution factor 10^8",−
same,average inactivation efficiency against virus,"1 mM EGCG, 1 minute",49.71%
same,inactivation efficiency against the virus,"1 mM EGCG, 5 minutes",49.88% and 36.90%
same,average inactivation efficiency against virus,"1 mM EGCG, 5 minutes",45.55%
same,CPE test (virus replication in cell wells),"5 mM EGCG + hCoV-229E virus, co-incubated 1 minute, first experiment, dilution factor 10^2",+
same,CPE test (virus replication in cell wells),"5 mM EGCG + hCoV-229E virus, co-incubated 1 minute, first experiment, dilution factor 10^3",+
same,CPE test (virus replication in cell wells),"5 mM EGCG + hCoV-229E virus, co-incubated 1 minute, first experiment, dilution factor 10^4",+
same,CPE test (virus replication in cell wells),"5 mM EGCG + hCoV-229E virus, co-incubated 1 minute, first experiment, dilution factor 10^5",+ and −
same,CPE test (virus replication in cell wells),"5 mM EGCG + hCoV-229E virus, co-incubated 1 minute, first experiment, dilution factor 10^6",−
same,CPE test (virus replication in cell wells),"5 mM EGCG + hCoV-229E virus, co-incubated 1 minute, first experiment, dilution factor 10^7",−
same,CPE test (virus replication in cell wells),"5 mM EGCG + hCoV-229E virus, co-incubated 1 minute, first experiment, dilution factor 10^8",−
same,CPE test (virus replication in the cell wells),"5 mM EGCG + virus, co-incubated 5 minute, first experiment, dilution factor 10^2, wells 1-10",+
same,CPE test (virus replication in the cell wells),"5 mM EGCG + virus, co-incubated 5 minute, first experiment, dilution factor 10^3, wells 1-10",+
same,CPE test (virus replication in the cell wells),"5 mM EGCG + virus, co-incubated 5 minute, first experiment, dilution factor 10^4, wells 1-10",+
same,CPE test (virus replication in the cell wells),"5 mM EGCG + virus, co-incubated 5 minute, first experiment, dilution factor 10^5, wells 1-10",− and +
same,CPE test (virus replication in the cell wells),"5 mM EGCG + virus, co-incubated 5 minute, first experiment, dilution factor 10^6, wells 1-10",−
same,CPE test (virus replication in the cell wells),"5 mM EGCG + virus, co-incubated 5 minute, first experiment, dilution factor 10^7, wells 1-10",−
same,CPE test (virus replication in the cell wells),"5 mM EGCG + virus, co-incubated 5 minute, first experiment, dilution factor 10^8, wells 1-10",−
same,CPE test (virus replication in the cell wells),"5 mM EGCG + virus, co-incubated 5 minute, second experiment, dilution factor 10^2, wells 1-10",+
same,CPE test (virus replication in the cell wells),"5 mM EGCG + virus, co-incubated 5 minute, second experiment, dilution factor 10^3, wells 1-10",+
same,CPE test (virus replication in the cell wells),"5 mM EGCG + virus, co-incubated 5 minute, second experiment, dilution factor 10^4, wells 1-10",+
same,CPE test (virus replication in the cell wells),"5 mM EGCG + virus, co-incubated 5 minute, second experiment, dilution factor 10^5, wells 1-10",− and +
same,CPE test (virus replication in the cell wells),"5 mM EGCG + virus, co-incubated 5 minute, second experiment, dilution factor 10^6, wells 1-10",− and +
same,CPE test (virus replication in the cell wells),"5 mM EGCG + virus, co-incubated 5 minute, second experiment, dilution factor 10^7, wells 1-10",−
same,CPE test (virus replication in the cell wells),"5 mM EGCG + virus, co-incubated 5 minute, second experiment, dilution factor 10^8, wells 1-10",−
same,CPE test (virus replication in the cell wells),"5 mM EGCG + virus, co-incubated 5 minutes, dilution factor 10^1, wells 1-10, third experiment",+
same,CPE test (virus replication in the cell wells),"5 mM EGCG + virus, co-incubated 5 minutes, dilution factor 10^2, wells 1-10, third experiment",+
same,CPE test (virus replication in the cell wells),"5 mM EGCG + virus, co-incubated 5 minutes, dilution factor 10^3, wells 1-10, third experiment",+
same,CPE test (virus replication in the cell wells),"5 mM EGCG + virus, co-incubated 5 minutes, dilution factor 10^4, wells 1-10, third experiment",+
same,CPE test (virus replication in the cell wells),"5 mM EGCG + virus, co-incubated 5 minutes, dilution factor 10^5, wells 1-10, third experiment",+ and −
same,CPE test (virus replication in the cell wells),"5 mM EGCG + virus, co-incubated 5 minutes, dilution factor 10^6, wells 1-10, third experiment",− and +
same,CPE test (virus replication in the cell wells),"5 mM EGCG + virus, co-incubated 5 minutes, dilution factor 10^7, wells 1-10, third experiment",−
same,CPE test (virus replication in the cell wells),"5 mM EGCG + virus, co-incubated 5 minutes, dilution factor 10^8, wells 1-10, third experiment",−
same,CPE test (virus replication in cell wells),"5 mM EGCG + virus, hCoV-229E co-incubated 1 minute, second experiment, dilution factor 10^2",+
same,CPE test (virus replication in cell wells),"5 mM EGCG + virus, hCoV-229E co-incubated 1 minute, second experiment, dilution factor 10^3",+ and −
same,CPE test (virus replication in cell wells),"5 mM EGCG + virus, hCoV-229E co-incubated 1 minute, second experiment, dilution factor 10^4",+
same,CPE test (virus replication in cell wells),"5 mM EGCG + virus, hCoV-229E co-incubated 1 minute, second experiment, dilution factor 10^5",− and +
same,CPE test (virus replication in cell wells),"5 mM EGCG + virus, hCoV-229E co-incubated 1 minute, second experiment, dilution factor 10^6",−
same,CPE test (virus replication in cell wells),"5 mM EGCG + virus, hCoV-229E co-incubated 1 minute, second experiment, dilution factor 10^7",−
same,CPE test (virus replication in cell wells),"5 mM EGCG + virus, hCoV-229E co-incubated 1 minute, second experiment, dilution factor 10^8",−
same,CPE test (virus replication in cell wells),"5 mM EGCG + virus, hCoV-229E co-incubated 1 minute, third experiment, dilution factor 10^2",+
same,CPE test (virus replication in cell wells),"5 mM EGCG + virus, hCoV-229E co-incubated 1 minute, third experiment, dilution factor 10^3",+
same,CPE test (virus replication in cell wells),"5 mM EGCG + virus, hCoV-229E co-incubated 1 minute, third experiment, dilution factor 10^4",+
same,CPE test (virus replication in cell wells),"5 mM EGCG + virus, hCoV-229E co-incubated 1 minute, third experiment, dilution factor 10^5",+ and −
same,CPE test (virus replication in cell wells),"5 mM EGCG + virus, hCoV-229E co-incubated 1 minute, third experiment, dilution factor 10^6",− and +
same,CPE test (virus replication in cell wells),"5 mM EGCG + virus, hCoV-229E co-incubated 1 minute, third experiment, dilution factor 10^7",−
same,CPE test (virus replication in cell wells),"5 mM EGCG + virus, hCoV-229E co-incubated 1 minute, third experiment, dilution factor 10^8",−
same,inactivation efficiency against the virus,"5 mM EGCG, 1 minute",68.38% and 49.88%
same,average inactivation efficiency against virus,"5 mM EGCG, 1 minute",62.21%
same,inactivation efficiency against the virus,"5 mM EGCG, 5 minutes",60.19% and 36.90% and 49.88%
same,average inactivation efficiency against virus,"5 mM EGCG, 5 minutes",48.99%
